Assay results from ChEMBL document CHEMBL1141005, “Modulation of PPAR receptor subtype selectivity of the ligands: aliphatic chain vs aromatic ring as a spacer between pharmacophore and the lipophilic moiety” (Bioorg Med Chem Lett, 2008).
pEC50: −log10 of the molar value. Activity calls are given as the source filed them. The calls are words filed in the database; no cut-off is given here.

Experiments:
[1] = molecular target: T1, Peroxisome proliferator-activated receptor alpha (Homo sapiens, UniProt Q07869); experiment: Agonist activity at human PPARalpha transactivation expressed in human HePG2 cells; format: functional, cell-based
T1 sequence (Q07869 whole entry): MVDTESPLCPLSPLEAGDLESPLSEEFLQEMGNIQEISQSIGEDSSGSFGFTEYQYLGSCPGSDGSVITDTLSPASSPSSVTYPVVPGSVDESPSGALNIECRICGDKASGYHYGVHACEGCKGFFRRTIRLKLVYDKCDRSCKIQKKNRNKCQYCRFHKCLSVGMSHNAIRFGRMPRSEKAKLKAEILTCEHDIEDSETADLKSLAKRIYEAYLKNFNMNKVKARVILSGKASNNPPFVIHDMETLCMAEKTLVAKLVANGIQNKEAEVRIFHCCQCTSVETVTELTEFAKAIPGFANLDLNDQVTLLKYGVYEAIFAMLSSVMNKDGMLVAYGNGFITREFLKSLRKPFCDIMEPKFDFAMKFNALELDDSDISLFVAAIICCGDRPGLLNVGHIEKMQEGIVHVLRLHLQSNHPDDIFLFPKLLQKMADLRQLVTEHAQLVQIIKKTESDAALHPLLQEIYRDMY

[2] = molecular target: T2, Peroxisome proliferator-activated receptor gamma (Homo sapiens, UniProt P37231); experiment: Agonist activity at human PPARgamma transactivation expressed in human HePG2 cells
T2 sequence (P37231 whole entry): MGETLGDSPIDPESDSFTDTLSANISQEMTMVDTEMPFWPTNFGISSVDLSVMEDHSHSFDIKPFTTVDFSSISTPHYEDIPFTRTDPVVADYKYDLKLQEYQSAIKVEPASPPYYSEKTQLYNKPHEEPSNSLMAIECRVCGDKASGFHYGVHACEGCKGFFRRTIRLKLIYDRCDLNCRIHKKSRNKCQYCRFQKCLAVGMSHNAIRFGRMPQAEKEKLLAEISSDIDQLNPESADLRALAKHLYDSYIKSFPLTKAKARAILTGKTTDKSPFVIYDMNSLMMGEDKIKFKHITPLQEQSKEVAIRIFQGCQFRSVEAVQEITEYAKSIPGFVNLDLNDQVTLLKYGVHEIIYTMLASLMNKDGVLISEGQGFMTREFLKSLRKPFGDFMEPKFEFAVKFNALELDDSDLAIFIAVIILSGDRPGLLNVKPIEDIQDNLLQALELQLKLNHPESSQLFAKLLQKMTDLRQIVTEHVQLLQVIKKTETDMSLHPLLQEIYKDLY

[3] = molecular target: T3, Peroxisome proliferator-activated receptor delta (Homo sapiens) (UniProt Q03181); experiment: Agonist activity at human PPARdelta transactivation expressed in human HePG2 cells up to 1 uM; format: functional, cell-based
T3 sequence (whole entry): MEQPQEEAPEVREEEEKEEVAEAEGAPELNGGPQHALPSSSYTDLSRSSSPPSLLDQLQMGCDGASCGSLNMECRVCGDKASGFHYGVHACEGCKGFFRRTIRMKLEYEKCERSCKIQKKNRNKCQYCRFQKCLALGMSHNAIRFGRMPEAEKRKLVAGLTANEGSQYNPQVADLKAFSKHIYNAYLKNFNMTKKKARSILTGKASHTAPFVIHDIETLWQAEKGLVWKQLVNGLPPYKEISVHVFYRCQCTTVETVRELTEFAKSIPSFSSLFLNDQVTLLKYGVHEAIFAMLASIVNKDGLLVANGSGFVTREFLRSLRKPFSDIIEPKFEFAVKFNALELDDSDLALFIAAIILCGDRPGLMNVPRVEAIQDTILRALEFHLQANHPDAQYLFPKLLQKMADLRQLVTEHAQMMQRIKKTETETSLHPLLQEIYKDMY

[4] = test system: HpG2; experiment: Selectivity ratio of EC50 for human PPARgamma receptor to human PPARalpha receptor expressed in human HpG2 cells; format: cell-based
[5] = molecular target: T4, Peroxisome proliferator-activated receptor alpha (Homo sapiens) (UniProt Q07869); experiment: Agonist activity at human PPARalpha transactivation expressed in human HePG2 cells up to1 uM; format: functional, cell-based
T4 sequence (whole entry): T1 sequence (Q07869 whole entry)

[6] = molecular target: T5, Peroxisome proliferator-activated receptor gamma (Homo sapiens) (UniProt P37231); experiment: Agonist activity at human PPARgamma transactivation expressed in human HePG2 cells up to1 uM; format: functional, cell-based
T5 sequence (whole entry): T2 sequence (P37231 whole entry)

Activity [5]	Activity [6]	Structure (SMILES)	pEC50 [1]	pEC50 [2]	Activity [3]	Ratio EC50 [4]
		COc1ccc(OC(=O)N(CCCCCCc2nc(-c3ccc(C)cc3)oc2C)CC(=O)O)cc1	7.47	6.35	inactive	13
		Cc1ccc(-c2nc(CCCCO/N=C(\CCC(=O)O)c3ccccc3)c(C)o2)cc1	11.42	6.37	inactive	113000
		Cc1ccc(-c2nc(CCCCCO/N=C(/CCC(=O)O)c3ccccc3)c(C)o2)cc1	8.70	7.51	inactive	15
inactive	inactive	COc1ccc(OC(=O)N(CCCCc2nc(-c3ccc(C)cc3)oc2C)CC(=O)O)cc1			inactive	
		Cc1ccc(-c2nc(CCCCCCO/N=C(/CCC(=O)O)c3ccccc3)c(C)o2)cc1	10.00	7.00	inactive	1000
		Cc1oc(-c2ccccc2)nc1COc1ccc(CO/N=C(\CCC(=O)O)c2ccccc2)cc1 [IMIGLITAZAR]	8.10		inactive	
		COc1ccc(OC(=O)N(CCCCCc2coc(-c3ccc(C)cc3)n2)CC(=O)O)cc1	7.36	6.25	inactive	12
		Cc1ccc(-c2nc(CCCC[C@H]3CO[C@@](C)(C(=O)O)OC3)c(C)o2)cc1		5.16	inactive	
		COc1ccc(OC(=O)N(CC(=O)O)Cc2ccc(OCCc3nc(-c4ccccc4)oc3C)cc2)cc1 [MURAGLITAZAR]	6.82		inactive	
		Cc1ccc(-c2nc(COc3ccc(C[C@H]4CO[C@@](C)(C(=O)O)OC4)cc3)c(C)o2)cc1	7.14		inactive	0.2
